In PubChem BioAssay (NCI):
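Dose response: 5 concentrations. Exposure: 48 h. Format: 96-well plates. Endpoint: linear interpolation; highest concentration if not reached. TGI: total growth inhibition.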

Tests used:
Test in all cases: growth of human tumour cells (NCI), 48 h
[1] = system: 786-0 renal
[2] = system: ACHN renal
[3] = system: EKVX NSCLC
[4] = system: HOP-62 NSCLC
[5] = system: IGROV1 ovarian
[6] = system: MCF7 breast
[7] = system: NCI-H226 lung
[8] = system: RXF 393 renal
[9] = system: SNB-75 CNS
[10] = system: SR leukemia
[11] = system: UACC-62 melanoma

With `Cc1csc(CP(=O)(OC(C)C)OC(C)C)n1` the TGI [1] was over 100 µM, the TGI [2] was over 100 µM and the TGI [3] was over 100 µM. The TGI [4] was over 100 µM, the TGI [5] was over 100 µM and the TGI [6] was over 100 µM. For the same molecule, the TGI [7] was over 100 µM, the TGI [8] was over 100 µM and the TGI [9] was over 100 µM. The TGI [10] was over 100 µM.

With `O=Cc1ccc(Oc2c3ccccc3nc3ccccc23)cc1` the TGI [1] was 6.16 µM, the TGI [2] was 14 µM and the TGI [3] was 40.2 µM. The TGI [4] was 33.9 µM, the TGI [6] was 45.4 µM and the TGI [7] was 20.2 µM. For the same molecule, the TGI [8] was 21.5 µM, the TGI [9] was 29.5 µM and the TGI [10] was 7.19 µM. For the same molecule, the TGI [11] was 2.74 µM.

For `CCOc1ccnc2c(OC)c(C)c3nc4ccccc4nc3c12`, the TGI [1] was over 100 µM, the TGI [2] was over 100 µM and the TGI [3] was over 100 µM. The TGI [4] was over 100 µM, the TGI [5] was over 100 µM and the TGI [6] was over 100 µM. It also gave a TGI [7] of over 100 µM, a TGI [8] of over 100 µM and a TGI [9] of over 100 µM. For the same molecule, the TGI [10] was over 100 µM.

In the case of `O=[N+]([O-])c1cc(C2ON=C(c3ccccc3)N2C23CC4CC(CC(C4)C2)C3)ccc1Cl` (stereo not drawn), the TGI [1] is reported as over 100 µM, the TGI [2] is reported as over 100 µM and the TGI [3] is reported as over 100 µM. It also gave a TGI [4] of over 100 µM, a TGI [5] of over 100 µM and a TGI [6] of over 100 µM. The TGI [7] was over 100 µM, the TGI [8] was over 100 µM and the TGI [9] was 93.6 µM. The TGI [10] was over 100 µM.

`COC1=C2C[C@](OC)(C#CC=CC#CC2O)CC1(C)C` (stereo partly drawn) gave a TGI [1] of over 100 µM, a TGI [2] of over 100 µM and a TGI [3] of over 100 µM. It also gave a TGI [4] of over 100 µM, a TGI [5] of 63.2 µM and a TGI [6] of over 100 µM. It also gave a TGI [7] of over 100 µM, a TGI [8] of over 100 µM and a TGI [9] of over 100 µM. For the same molecule, the TGI [10] was over 100 µM and the TGI [11] was over 100 µM.

In the case of `CC1(C)C/C=C\CCC(O)C(O)CCC(C)(C)C1=O` (stereo not drawn), the TGI [1] is reported as over 100 µM, the TGI [2] is reported as over 100 µM and the TGI [3] is reported as over 100 µM. It also gave a TGI [4] of over 100 µM, a TGI [5] of over 100 µM and a TGI [6] of over 100 µM. For the same molecule, the TGI [7] was over 100 µM, the TGI [8] was over 100 µM and the TGI [9] was over 100 µM. It also gave a TGI [10] of over 100 µM and a TGI [11] of over 100 µM.

`COc1ccc(-c2c3c(n(C4OC(COC(C)=O)C(OC(C)=O)C(OC(C)=O)C4OC(C)=O)c(=S)c2C#N)CCCC3)cc1` (stereo not drawn) showed a TGI [1] of over 100 µM, a TGI [2] of over 100 µM and a TGI [3] of over 100 µM. For the same molecule, the TGI [4] was over 100 µM, the TGI [5] was over 100 µM and the TGI [6] was over 100 µM. It also gave a TGI [7] of over 100 µM, a TGI [8] of 88.7 µM and a TGI [9] of 94 µM. For the same molecule, the TGI [10] was over 100 µM and the TGI [11] was over 100 µM.

`[B]C(=O)NC(CC(C)C)C(=O)NC1c2ccsc2C(=O)C1O` (stereo not drawn) (tested in a mixture with another compound) was tested, and the TGI [1] was over 100 µM, the TGI [2] was over 100 µM and the TGI [3] was over 100 µM. It also gave a TGI [4] of over 100 µM, a TGI [5] of over 100 µM and a TGI [6] of over 100 µM. It also gave a TGI [7] of over 100 µM, a TGI [8] of over 100 µM and a TGI [9] of over 100 µM. For the same molecule, the TGI [10] was over 100 µM and the TGI [11] was over 100 µM.

`O=C(Nc1ccccn1)c1cc2c(cc1Cl)Sc1nccn1S2(=O)=O` showed a TGI [1] of over 100 µM, a TGI [2] of over 100 µM and a TGI [3] of 94.5 µM. It also gave a TGI [4] of over 100 µM, a TGI [5] of 76.4 µM and a TGI [6] of over 100 µM. The TGI [7] was 57.3 µM, the TGI [8] was 93.9 µM and the TGI [9] was over 100 µM. The TGI [10] was over 100 µM and the TGI [11] was over 100 µM.

`CC(C)N=C(NC#N)NS(=O)(=O)c1cnccc1NC1CCCCCCC1` showed a TGI [1] of over 100 µM, a TGI [2] of over 100 µM and a TGI [3] of over 100 µM. The TGI [4] was over 100 µM, the TGI [5] was over 100 µM and the TGI [6] was over 100 µM. The TGI [7] was over 100 µM, the TGI [8] was over 100 µM and the TGI [9] was over 100 µM. The TGI [10] was over 100 µM and the TGI [11] was over 100 µM.

With `CN1CCN2CCN(C)CCN(CC1)CC2` the TGI [1] was over 100 µM, the TGI [2] was over 100 µM and the TGI [3] was over 100 µM. For the same molecule, the TGI [4] was over 100 µM, the TGI [5] was over 100 µM and the TGI [6] was over 100 µM. For the same molecule, the TGI [7] was over 100 µM, the TGI [8] was over 100 µM and the TGI [9] was over 100 µM. It also gave a TGI [10] of over 100 µM and a TGI [11] of over 100 µM.

`Cc1nc2c(ccc3[nH]c4ccccc4c32)s1` showed a TGI [1] of over 100 µM, a TGI [2] of over 100 µM and a TGI [3] of 69.1 µM. It also gave a TGI [4] of 40 µM, a TGI [5] of over 100 µM and a TGI [6] of over 100 µM. For the same molecule, the TGI [7] was 98.7 µM, the TGI [8] was over 100 µM and the TGI [9] was over 100 µM. For the same molecule, the TGI [10] was 87.8 µM and the TGI [11] was 41.2 µM.

`C[C@@H](Br)[C@@H]1CC[C@H]2c3[nH]c4ccccc4c3CCN2C1` was tested, and the TGI [1] was 36.6 µM, the TGI [2] was over 100 µM and the TGI [3] was over 100 µM. For the same molecule, the TGI [4] was 40.5 µM, the TGI [5] was 77.8 µM and the TGI [6] was 77.6 µM. The TGI [7] was over 100 µM, the TGI [8] was 61.5 µM and the TGI [9] was 48.3 µM. It also gave a TGI [10] of 38.3 µM and a TGI [11] of 33.5 µM.

For `COc1ccc(OC)c2c1-c1nnnn1CCC2(C)C`, the TGI [1] was over 100 µM, the TGI [2] was over 100 µM and the TGI [3] was over 100 µM. For the same molecule, the TGI [4] was over 100 µM, the TGI [5] was over 100 µM and the TGI [6] was over 100 µM. The TGI [7] was over 100 µM, the TGI [8] was over 100 µM and the TGI [9] was over 100 µM. It also gave a TGI [10] of over 100 µM and a TGI [11] of over 100 µM.

Work on `CC(C)[Si](CC1=CCCCC12C(=O)N(COCC[Si](C)(C)C)c1ccccc12)(C(C)C)C(C)C` (stereo not drawn) yielded a TGI [1] of over 100 µM, a TGI [2] of over 100 µM and a TGI [3] of over 100 µM. It also gave a TGI [4] of over 100 µM, a TGI [5] of over 100 µM and a TGI [6] of over 100 µM. For the same molecule, the TGI [7] was over 100 µM, the TGI [8] was 54.2 µM and the TGI [9] was over 100 µM. It also gave a TGI [10] of over 100 µM and a TGI [11] of over 100 µM.

In the case of `CC(=O)Nc1ccc2cc3c(nc2n1)c1cccnc1n3S(=O)(=O)c1ccccc1`, the TGI [1] is reported as over 100 µM, the TGI [2] is reported as over 100 µM and the TGI [3] is reported as over 100 µM. For the same molecule, the TGI [4] was over 100 µM, the TGI [5] was over 100 µM and the TGI [6] was over 100 µM. For the same molecule, the TGI [7] was over 100 µM, the TGI [8] was over 100 µM and the TGI [9] was over 100 µM. It also gave a TGI [10] of over 100 µM and a TGI [11] of over 100 µM.

`Oc1ccccc1/C=N/N1C(=S)N(c2ccccc2)C(=Nc2ccccc2)C1=Nc1ccccc1` was tested, and the TGI [1] was 14.1 µM, the TGI [2] was 17.5 µM and the TGI [3] was 32.2 µM. For the same molecule, the TGI [4] was 22.6 µM, the TGI [5] was 30.8 µM and the TGI [6] was over 100 µM. It also gave a TGI [7] of 26.4 µM, a TGI [8] of 18.1 µM and a TGI [9] of 11.4 µM. It also gave a TGI [10] of over 81.2 µM and a TGI [11] of 29.3 µM.

`O=C1CSC2(CC(/C=C/c3ccccc3[N+](=O)[O-])=NN2c2cccc(S(=O)(=O)O)c2)N1c1nc2ccccc2s1` (stereo not drawn) showed a TGI [1] of 22.5 µM, a TGI [2] of 44.2 µM and a TGI [3] of over 75 µM. It also gave a TGI [5] of 36.1 µM, a TGI [6] of 26.4 µM and a TGI [7] of 44.1 µM. For the same molecule, the TGI [8] was over 75 µM, the TGI [9] was 28.8 µM and the TGI [10] was 63.1 µM. For the same molecule, the TGI [11] was 29 µM.
